Measured values reported in patent US20220340916A1, “METHODS FOR TRANSFORMING WHEAT EXPLANTS AND COMPOSITIONS THEREFOR” (MONSANTO TECHNOLOGY LLC, priority 2013, published 2022).

Legend:
[1] = tested on: wheat WDSDEs
[2] = tested on: wheat seed
[3] = tested on: WDSDEs

Compound	effect of soaking WDSDEs on oxygen consumption [1]	effect on oxygen consumption when added to the reaction chamber during an oxygen measurement [1]	effect of ethanol exposure on intact seed germination on media ([2]; 70% ethanol, FIG. 2)	germination of intact seeds as measured by root and shoot development on media ([2]; sanitization treatments involving ethanol, FIG. 1)	viability of WDSDEs produced from treated seed [3]	cleanliness of WDSDEs excised from treated seed ([3]; seed sanitization, 10% Clorox bleach, ethanol used cold (~0° C.))
O=C(NO)c1ccccc1O [SHAM, salicylhydroxamic acid]	No effect	Very little effect	–	–	–	–
CCO [ethanol]	–	–	time-dependent effect	reduced germination	acceptable	less efficient
